Results reported in ChEMBL document CHEMBL5303573, “Mapping human microbiome drug metabolism by gut bacteria and their genes” (Nature, 2019).

Experiments:
[1] = anaerostipes sp., 12 h, 2 µM
Description: The drug is tested on Anaerostipes sp. strain: fecal isolate for biotransformation. The drug concentrations were measured before and after a 12-h incubation by liquid-chromatography-coupled mass spectrometry (LC–MS)

[2] = The drug is tested on Providencia stuartii strain: ATCC25827 for biotransformation. The drug concentrations were measured before and after a 12-h incubation by liquid-chromatography-coupled mass spectrometry (LC–MS); details: 2 µM
[3] = The drug is tested on Anaerococcus hydrogenalis strain: DSM7454 for biotransformation. The drug concentrations were measured before and after a 12-h incubation by liquid-chromatography-coupled mass spectrometry (LC–MS); details: 2 µM
[4] = limosilactobacillus reuteri cf48-3a, 12 h, 2 µM
Description: The drug is tested on Lactobacillus reuteri CF48-3A strain: BEI HM-102 for biotransformation. The drug concentrations were measured before and after a 12-h incubation by liquid-chromatography-coupled mass spectrometry (LC–MS)

[5] = bacteroides stercoris, 12 h, 2 µM
Description: The drug is tested on Bacteroides stercoris strain: ATCC43183 for biotransformation. The drug concentrations were measured before and after a 12-h incubation by liquid-chromatography-coupled mass spectrometry (LC–MS)

[6] = The drug is tested on Blautia hansenii strain: DSM20583 for biotransformation. The drug concentrations were measured before and after a 12-h incubation by liquid-chromatography-coupled mass spectrometry (LC–MS); details: 2 µM
[7] = The drug is tested on Bacteroides finegoldii strain: DSM17565 for biotransformation. The drug concentrations were measured before and after a 12-h incubation by liquid-chromatography-coupled mass spectrometry (LC–MS); details: 2 µM
[8] = The drug is tested on Clostridium symbiosum strain: ATCC14940 for biotransformation. The drug concentrations were measured before and after a 12-h incubation by liquid-chromatography-coupled mass spectrometry (LC–MS); details: 2 µM
[9] = The drug is tested on Clostridium asparagiforme strain: DSM15981 for biotransformation. The drug concentrations were measured before and after a 12-h incubation by liquid-chromatography-coupled mass spectrometry (LC–MS); assay type: ADME; set-up: dose 2 uM, timepoint 0 vs 12 hours; details: enterocloster asparagiformis, 2 µM
[10] = The drug is tested on Clostridium scindens strain: ATCC35704 for biotransformation. The drug concentrations were measured before and after a 12-h incubation by liquid-chromatography-coupled mass spectrometry (LC–MS); details: 2 µM
[11] = The drug is tested on Clostridium sp. strain: fecal isolate for biotransformation. The drug concentrations were measured before and after a 12-h incubation by liquid-chromatography-coupled mass spectrometry (LC–MS); details: 2 µM
[12] = The drug is tested on Odoribacter splanchnicus strain: fecal isolate for biotransformation. The drug concentrations were measured before and after a 12-h incubation by liquid-chromatography-coupled mass spectrometry (LC–MS); details: 2 µM
[13] = The drug is tested on Enterococcus faecalis strain: V583 for biotransformation. The drug concentrations were measured before and after a 12-h incubation by liquid-chromatography-coupled mass spectrometry (LC–MS); details: 2 µM
[14] = bacteroides eggerthii, 12 h, 2 µM
Description: The drug is tested on Bacteroides eggerthii strain: DSM20697 for biotransformation. The drug concentrations were measured before and after a 12-h incubation by liquid-chromatography-coupled mass spectrometry (LC–MS)

[15] = The drug is tested on Subdoligranulum variabile strain: DSM15176 for biotransformation. The drug concentrations were measured before and after a 12-h incubation by liquid-chromatography-coupled mass spectrometry (LC–MS); details: 2 µM
[16] = The drug is tested on Bacteroides cellulosilyticus strain: DSM14838 for biotransformation. The drug concentrations were measured before and after a 12-h incubation by liquid-chromatography-coupled mass spectrometry (LC–MS); details: 2 µM
[17] = bacteroides thetaiotaomicron, 12 h, 2 µM
Description: The drug is tested on Bacteroides thetaiotaomicron strain: 7330 for biotransformation. The drug concentrations were measured before and after a 12-h incubation by liquid-chromatography-coupled mass spectrometry (LC–MS)

[18] = The drug is tested on Eubacterium ventriosum strain: ATCC27560 for biotransformation. The drug concentrations were measured before and after a 12-h incubation by liquid-chromatography-coupled mass spectrometry (LC–MS); assay type: ADME; set-up: dose 2 uM, timepoint 0 vs 12 hours; details: 2 µM
[19] = bacteroides fragilis, 12 h, 2 µM
Description: The drug is tested on Bacteroides fragilis strain: 3397 (T10) for biotransformation. The drug concentrations were measured before and after a 12-h incubation by liquid-chromatography-coupled mass spectrometry (LC–MS)

[20] = bifidobacterium adolescentis, 12 h, 2 µM
Description: The drug is tested on Bifidobacterium adolescentis strain: ATCC 15703 for biotransformation. The drug concentrations were measured before and after a 12-h incubation by liquid-chromatography-coupled mass spectrometry (LC–MS)

CCCCC(=O)O[C@]1(C(=O)CO)[C@@H](C)C[C@H]2[C@@H]3CCC4=CC(=O)C=C[C@]4(C)[C@@]3(F)[C@@H](O)C[C@@]21C [BETAMETHASONE VALERATE]
Bacterial Biotransformation [1]: Compound NOT metabolized
Bacterial Biotransformation [2]: Compound NOT metabolized
Bacterial Biotransformation [3]: Compound NOT metabolized
Bacterial Biotransformation [4]: Compound metabolized
Bacterial Biotransformation [5]: Compound metabolized
Bacterial Biotransformation [6]: Compound metabolized
Bacterial Biotransformation [7]: Compound metabolized
Bacterial Biotransformation [8]: Compound NOT metabolized
Bacterial Biotransformation [9]: Compound NOT metabolized
Bacterial Biotransformation [10]: Compound metabolized
Bacterial Biotransformation [11]: Compound metabolized
Bacterial Biotransformation [12]: Compound metabolized
Bacterial Biotransformation [13]: Compound NOT metabolized
Bacterial Biotransformation [14]: Compound metabolized
Bacterial Biotransformation [15]: Compound metabolized
Bacterial Biotransformation [16]: Compound NOT metabolized
Bacterial Biotransformation [17]: Compound metabolized

CN(C)C(=O)C(CCN1CCC(O)(c2ccc(Cl)cc2)CC1)(c1ccccc1)c1ccccc1 [LOPERAMIDE]
Bacterial Biotransformation [1]: Compound NOT metabolized
Bacterial Biotransformation [2]: Compound NOT metabolized
Bacterial Biotransformation [3]: Compound NOT metabolized
Bacterial Biotransformation [4]: Compound NOT metabolized
Bacterial Biotransformation [5]: Compound metabolized
Bacterial Biotransformation [6]: Compound metabolized
Bacterial Biotransformation [8]: Compound NOT metabolized
Bacterial Biotransformation [9]: Compound NOT metabolized
Bacterial Biotransformation [10]: Compound NOT metabolized
Bacterial Biotransformation [11]: Compound metabolized
Bacterial Biotransformation [12]: Compound metabolized
Bacterial Biotransformation [18]: Compound NOT metabolized
Bacterial Biotransformation [13]: Compound NOT metabolized
Bacterial Biotransformation [14]: Compound metabolized
Bacterial Biotransformation [19]: Compound metabolized
Bacterial Biotransformation [15]: Compound NOT metabolized
Bacterial Biotransformation [16]: Compound NOT metabolized
Bacterial Biotransformation [20]: Compound NOT metabolized

O=C(NC(Cc1cc(=O)[nH]c2ccccc12)C(=O)O)c1ccc(Cl)cc1 (stereo not drawn) [REBAMIPIDE]
Bacterial Biotransformation [1]: Compound NOT metabolized
Bacterial Biotransformation [2]: Compound NOT metabolized
Bacterial Biotransformation [3]: Compound NOT metabolized
Bacterial Biotransformation [5]: Compound NOT metabolized
Bacterial Biotransformation [6]: Compound NOT metabolized
Bacterial Biotransformation [7]: Compound NOT metabolized
Bacterial Biotransformation [8]: Compound NOT metabolized
Bacterial Biotransformation [9]: Compound NOT metabolized
Bacterial Biotransformation [10]: Compound NOT metabolized
Bacterial Biotransformation [11]: Compound NOT metabolized
Bacterial Biotransformation [12]: Compound NOT metabolized
Bacterial Biotransformation [13]: Compound NOT metabolized
Bacterial Biotransformation [14]: Compound NOT metabolized
Bacterial Biotransformation [19]: Compound NOT metabolized
Bacterial Biotransformation [15]: Compound NOT metabolized
Bacterial Biotransformation [16]: Compound NOT metabolized
Bacterial Biotransformation [20]: Compound NOT metabolized
Bacterial Biotransformation [17]: Compound metabolized
